Data on one compound can be found in patent US20210205348A1, “Methods for the Treatment of Bladder Cancer” (Eisai R&D Management Co., Ltd., priority 2018, published 2021).

Data set [1] deals with CT26 tumor cells. The data set is described as follows: CT26 liver metastatic model. As to conditions: 10 mg/kg intratumorally, a single time.
Data set [2] relates to IFNβ. The data set is described as follows: Ex vivo human PBMC stimulation assay, IFNβ protein. Format: cell-based. As to conditions: 24 hours, average of five donors. As for the experimental part: Human blood from 5 healthy donors was collected using 10.0 mL BD Vacutainer Sodium heparin tubes (cat #367874). Peripheral blood mononuclear cell (PBMC) isolation was done using SIGMA ACCUSPIN 50 ml Tubes (cat #A2055) and sigma ACCUSPIN System-HISTOPAQUE-1077 (cat #A7054) using protocol provided by manufacturer. […] PBMC were counted and finally suspended @ 1x10e6/ml in RPMI (corning cat #10-041-CV supplemented with 10% fetal bovine serum (FBS) (Gibco cat #20140.79). 1ml of cell (1×10e6) were transferred into Falcon 5 mL Round Bottom Polypropylene Test Tube (cat #352063) and stimulated with different concentrations (0, 0.1, 1, 10 uM) for 24 hours in 5% CO2 incubator at 37° C.
After 24 hours of incubation the tubes were centrifuged at 1400 rpm for 5 minutes and supernatants were harvested. Supernatant were stored in −80° C. for subsequent IFNβ measurement. IFNβ measurement was done using Human IFN-β Base Kit (Meso Scale Diagnostics cat #K151ADA) and protocol provided by manufacturer was used. IFN-beta estimation was done by reading assay plate at MESO SECTOR Imager 2400 and using MSD Discovery Workbench 4.0 program. After 24 hours IFNβ protein was analyzed.
Results shown in Table 3 reflect an average of measurements conducted using five different donors.

The test system of data set [3] is hepatocytes of human. The data set is described as follows: Hepatocyte incubation, identification of potential metabolites. Format: in vitro ADME. As to conditions: 10 μmol/L. How it is done: (§1) Prior to incubations, the cryopreserved hepatocytes were thawed in a water bath at 37° C. One tube of cryopreserved hepatocytes was added to each 50-mL conical tube of cryopreserved hepatocyte recovery medium (UCRM) obtained from In Vitro ADMET Laboratories (Columbia, Md.). The cells were spun in a Beckman centrifuge (Brea, Calif.) with a GH 3.8 rotor at 740 rpm for 10 minutes at […]. The supernatant was removed and the cells were re-suspended in plating media for counting. After the cells were re-suspended in plating media, 20 μL of the re-suspension was transferred and mixed with 20 μL of AOPI staining solution. The solution was gently mixed and cells were counted using a Cellometer (Nexcelom, Lawrence, Mass.). After counting, the cells were then re-suspended at 1 or 2 million viable cells/mL in Williams' E media containing 2 mmol/L L-glutamine (pH 7.4).
(§2) The hepatocyte suspension (50 μL/well) was added into a 48-well plate. […] The plate was placed into a tissue culture incubator (5% CO2/95% air humidified atmosphere and 37° C.), and the reactions were terminated with 200 μL of stop solution consisting of 100% methanol/acetonitrile (1/1, v/v) with 2010 ng/mL furosemide and 0.2 μmol/L (R)-propranolol at 5, 30, 60, 120, 180 and 240 minutes. The mixture was centrifuged and filtered, and the supernatant was collected for analysis. The final concentrations of cryopreserved hepatocytes were 1×10^6 cells/mL.
(§3) The LC-MS/MS system was composed of a Shimadzu HPLC and an AB-SCIEX TripleTOF 5600 hybrid quadrupole and TOF mass spectrometer (Framingham, Mass.). The Shimadzu HPLC (Kyoto, Japan), consisted of a communications bus module (CBM-20A), an auto-sampler (SIL-30AC) with an attached rack changer (Rack Changer II) two pumps (LC-30AD) and a column oven (CTO-30A). The mass spectrometer was calibrated using the AB-SCIEX APCI both Negative and Positive Calibration Solutions (Framingham, Mass.). The samples obtained from incubations with hepatocytes were analyzed under both negative and positive scan modes. The basic analytical method and instrumental conditions are summarized below. Modification of the spectrometer settings was dependent on the necessity of the analyte.
(§4) Mass spectrometry data were acquired using AB-Sciex Analyst TF (Version 1.5.1; Framingham, Mass.). Chromatograms and spectra were obtained using AB-Sciex PeakView (Version 2.2.0.1; Framingham, Mass.). The comparison of relative peak areas for extracted ion chromatograms were based on ±0.0002 Da of the expected exact mass-to-charge ratio (m/z) for each analyte of interest.

In data set [4] the test system is hepatocytes of Cynomoigus monkey. Described as above. Particulars: 10 μmol/L. Format: in vitro ADME. As for the experimental part: as §1, §2, §3, §4
In data set [5] the test system is hepatocytes of Beagle dog. Described as above. Format: in vitro ADME. As to conditions: 10 μmol/L. As for the experimental part: as §1, §2, §3, §4
Data set [6] has as its system hepatocytes of Sprague Dawley rat. The description is as above. Format: in vitro ADME. As to conditions: 10 μmol/L. As for the experimental part: as §1, §2, §3, §4
Data set [7] has as its system hepatocytes of CD-1 mouse. The data set is described as above. Format: in vitro ADME. Particulars: 10 μmol/L. As for the experimental part:
as §1, §2, §3, §4

Data set [8] has as its system MBT-2 tumor cells. The data set is described as follows: MBT-2 murine bladder cancer orthotopic model. Format: in vivo, mouse. As for the experimental part: The protocol with HCl pre-treatment procedure described by Lee, et al. was applied to establish the model. In brief, 30 μL 0.1 N HCl solution was injected into mouse bladder through a catheter and HCl solution was allowed to remain in the bladder for 15 seconds. Then the HCl solution was replaced by 30 μL 0.1N NaOH solution followed by one flushing step with 1 X PBS (pH7.4). The follow-up tumor cell implantation procedure was modified from the original literature. In brief, after a flushing step, MBT-2 tumor cells (2 ×10^6 cells in 50 μL RPMI1640 medium) were instilled into the bladder and allowed to remain for 45 minutes. At the end of this 45 minute period, the bladder was drained.
On each day of dosing BCG was diluted in NaCl 0.9% (Lavoisier, France) to reach the final concentration of 16.875 mg/mL for dosing. Any leftover dosing solution was discarded after use. For anti-PD-1 antibody, 1 x PBS (Lonza, France) was used to dilute the stock solution to prepare 1 mg/mL working solution for dosing.
From days 20-21, tumor growth in bladder was quantitated by MRI (Magnetic resonance imaging) and tumor sizes of all mice were graphed as shown in FIG. 7.

For data set [9], the system named is GL261 mouse glioma cells. The data set is described as follows: GL261 brain orthotopic model. Format: in vivo. Particulars: 10 mg/kg intratumorally, a single time. From the text:
GL261 is a murine glioma cell line.

Data set [10] deals with CT26 tumor cells. The data set is described as follows: CT26 dual tumor model (mouse colon cancer model).
Experimental: For study B, treatment was started 8 days (0.6 mg/kg, and 10 mg/kg) after the tumor implantation, when the average tumors reached approximately 120 mm^3.
All the mice in the study have two subcutaneous CT26 tumors. The “treated tumor” indicates the tumor with compound direct administration, while “untreated tumor” indicates the tumor without direct compound administration. Tumor volume was followed throughout the experiment. Tumor volume is measured two times weekly after the start of treatment. Tumor burden is calculated from caliper measurements by the formula for the volume of a prolate ellipsoid (L×W^2)/2 where L and W are the respective orthogonal length and width measurements (mm),

Regarding `O=P1(S)OCC2OC3C(F)C2OP(=O)(S)OCC2OC(C(F)C2O1)n1cnc2c(ncnc21)NCC=CCNc1ncnc2c1ncn23` (centres unmarked) [Compound 1a], the “activity towards the local sc tumors” value in [1] was “potent activity”. In addition, the “curative systemic activity (treated animals)” value is given as 9 of 10 in data set [1] (into the sc tumor) and 5 of 8 in data set [9] (into the sc tumor). In addition, the figures for the IFNβ in data set [2] (0.1 μM), in [2] (1 μM) and in [2] (10 μM) were 21.3 ± 17.8 pg/mL, 227.5 ± 62.4 pg/mL and 540.2 ± 215.0 pg/mL, respectively. Also, the “formation of major metabolites” value in [3] (human hepatocytes, LC-MS/MS) was “No apparent metabolite”; in data set [4] (monkey hepatocytes, LC-MS/MS), “No apparent metabolite”; in data set [5] (dog hepatocytes, LC-MS/MS), “No apparent metabolite”; in data set [6] (rat hepatocytes, LC-MS/MS) it was “No apparent metabolite”; in [7] (mouse hepatocytes, LC-MS/MS), “No apparent metabolite”. For the same compound, the “stability in incubations with hepatocytes” value in [3] (human, up to 240 minutes) is given as “stable”; in data set [4] (monkey, up to 240 minutes) it was “stable”; in data set [5] (dog, up to 240 minutes) it was “stable”; in [6] (rat, up to 240 minutes) it was “stable”; in data set [7] (mouse, up to 240 minutes) it was “stable”. The “tumor volumes quantified by MRI” value in data set [8] (days 20-21, 100, 200, 400 μg/mouse IVe Q7Dx3, also 400 μg/mouse with PD1 antibody (Groups 4 to 7), vs vehicle, BCG and PD1 antibody groups) is “much smaller tumor volumes”. Besides, the “survival relative to vehicle treated animals” value in data set [8] (intravesicular, Q7Dx3 (FIG. 8)) is recorded as “statistically significant survival benefit”. Also, the “activity at local sc tumors” value in [9] is “potent activity”. The “cure rate, treated tumors” value in [10] (0.6 mg/kg I.T. single dose) came to 20%. In addition, in [10] (10 mg/kg I.T. single dose), the “curative effects, untreated tumors” value came out at 80%. The “animals cured, treated tumors” value in data set [10] (10 mg/kg I.T. single dose, end of study) is on record as 100%. Further, the “effect on untreated tumors” value in data set [10] (all the lower doses (0.6 to 5 mg/kg) I.T. single dose) is on record as “tumor growth inhibition activity”.
